Drawing on ChEMBL document CHEMBL4041476, “Design, selective alkylation and X-ray crystal structure determination of dihydro-indolyl-1,2,4-triazole-3-thione and its 3-benzylsulfanyl analogue as potent anticancer agents” (Eur J Med Chem, 2017), this text covers IC50 for eleven compounds.

One assay has as its system MCF7. Nature of the assay: Antiproliferative activity against human MCF7 cells after 48 hrs by SRB assay. Format: functional, cell-based. To be noted: MCF7, 48 h. On the technique in general: Sulforhodamine B stains cellular protein and so reports cell mass.
The next assay relates to HepG2. Nature of the assay: Antiproliferative activity against human HepG2 cells after 48 hrs by SRB assay. To be noted: HepG2, 48 h. Format: functional, cell-based.

Molecules are shown by their SMILES. ≈ marks a conversion by molar mass, not a printed value. Bounds are passed on as bounds.

The IC50 is the midpoint of a concentration-inhibition curve. Low values mean inhibition by little substance, high ones a need for much substance. With `S=c1nc(-c2cc3ccccc3[nH]2)[nH][nH]1`, the IC50 in the assay with MCF7 worked out at 13.8 µg/mL (≈ 63.8 µM); in the assay with HepG2, 15.9 µg/mL (≈ 73.5 µM).

In the case of `CC(=O)N[C@@H]1[C@@H](OC(C)=O)[C@H](OC(C)=O)[C@@H](COC(C)=O)O[C@H]1n1nc(SCc2ccccc2)nc1-c1cc2ccccc2[nH]1`, the IC50 in the assay with MCF7 is 15.9 µg/mL (≈ 25 µM); in the assay with HepG2, 16.6 µg/mL (≈ 26.1 µM).

As to `OCCn1nc(-c2cc3ccccc3[nH]2)nc1SCc1ccccc1`, the IC50 came to 14.6 µg/mL (≈ 41.7 µM) in the assay with MCF7 and 12.1 µg/mL (≈ 34.5 µM) in the assay on HepG2.

For the compound `OCCCn1nc(SCc2ccccc2)nc1-c1cc2ccccc2[nH]1`, the IC50 is 16.2 µg/mL (≈ 44.4 µM) in the assay with MCF7 and 11.5 µg/mL (≈ 31.6 µM) in the assay on HepG2.

Turning to `CC(=O)N[C@@H]1[C@@H](OC(C)=O)[C@H](OC(C)=O)[C@@H](COC(C)=O)O[C@H]1n1nc(-c2cc3ccccc3[nH]2)nc1SCc1ccccc1`, the IC50 in the assay with MCF7 and in the assay with HepG2 was more than 100 µg/mL in each case.

`c1ccc(CSc2nc(-c3cc4ccccc4[nH]3)n[nH]2)cc1`: the IC50 in the assay with MCF7 was 4.53 µg/mL (≈ 14.8 µM); in the assay with HepG2 it was 3.58 µg/mL (≈ 11.7 µM).

In the case of `C=CCn1nc(-c2cc3ccccc3[nH]2)nc1SCc1ccccc1`, the IC50 in the assay on MCF7 worked out at 15.5 µg/mL (≈ 44.7 µM); in the assay on HepG2, 15.9 µg/mL (≈ 45.9 µM).

`CC(=O)OC[C@H]1O[C@@H](n2nc(SCc3ccccc3)nc2-c2cc3ccccc3[nH]2)[C@H](OC(C)=O)[C@@H](OC(C)=O)[C@@H]1OC(C)=O`: the IC50 in the assay with MCF7 came out at 16 µg/mL (≈ 25.1 µM); in the assay with HepG2 it was 16.1 µg/mL (≈ 25.3 µM).

As for `c1ccc(CSc2nc(-c3cc4ccccc4[nH]3)nn2Cc2ccccc2)cc1`, the half-maximal inhibitory concentration (IC50) in the assay with MCF7 was 10.8 µg/mL (≈ 27.2 µM); in the assay on HepG2, 17.9 µg/mL (≈ 45.1 µM).

With `c1ccc(CSc2nc(-c3cc4ccccc4[nH]3)n(Cc3ccccc3)n2)cc1`, the IC50 in the assay on MCF7 turned out to be 14.8 µg/mL (≈ 37.3 µM); with HepG2, 16.3 µg/mL (≈ 41.1 µM).

On to `COc1cccc2c1C(=O)c1c(O)c3c(c(O)c1C2=O)C[C@@](O)(C(=O)CO)C[C@@H]3O[C@H]1C[C@H](N)[C@H](O)[C@H](C)O1` [DOXORUBICIN], for which the IC50 with MCF7 and in the assay on HepG2 was 4 µg/mL (≈ 7.36 µM) in each case.
